Results as given in publication PMC12143348, “Rapid and reversible fluorescent probe enables repeated snapshot imaging of AMPA receptors during synaptic plasticity” (Science Advances, 2025).

What was measured:
[1] = system: AMPARs; experiment: Staining of AMPARs in acute cerebellar slices; type: binding, mouse; settings: 30 nM probe; acute cerebellar slices; incubation at least 5 min
Experimental: following secondary antibodies were used: donkey anti-mouse CF568 conjugated (Sigma, […]
1:1,000) and anti-rabbit Alexa Fluor Plus 488 conjugated (Invitrogen, A32731, 1,000).
Imaging was performed with confocal microscopy.
With two-step labeling, the cells were labeled as described in “Two -step labeling and PFQX1(AF488)staining in cultured neurons,” followed by immunostaining.
In fig. S9A, the cells were incubated with 500 nM CellTracker Red CMPTX (Invitrogen) instead of Calcein Red AM for 30 min at 37 °C to visualize the intracellular region before the immunostaining.
Preparation and staining of cerebellar acute brain slices
C57BL/6J mice (3 weeks) were anesthetized with isoflurane, and their brains were isolated and immediately transferred to ice-cold cutting solution buffer (120 mM Choline Chloride, 3 mM KCl, 8 mM MgCl2, 1.25 mM NaH2PO4, 28 mM NaHCO3, 22 mM Glucose, and 0.5 mM Sodium ascorbate) gassed with 5% CO2 and 95% O2 and incubated for 5 min. Sagittal cerebellar slices were cut with a microslicer (Neo-linear slicer NLS-MT; DOSAKA EM) in cutting solution buffer and then incubated in ACSF […]
NaHCO3, 10 mM Glucose) gassed with 5% CO 2 and 95% O 2 at 37 °C.
Acute slices were transferred to glass bottom dishes and treated with 30 nM PFQX1(AF488) in HEPES-based ACSF for 5 min. […]
Scale bars, 500 µm. (F) Quantification of probe intensity in Ε. […]

[2] = biological target: T1, GluA2flip(R) + GSG1L (Mus musculus, UniProt P23819, DEL765-802/Q607R); experiment: Concentration-dependent binding of PFQX1(AF488) to GluA2flip(R) expressed with GSG1L in HEK293T cells; settings: n = 3–4, read-out: Kd / Affinity of PFQX1(AF488) to GluA2flip(R) with GSG1L
T1 construct: expressed in transfected cells; host or cells: HEK293T
T1 sequence (P23819 with tags, fused parts or gaps isoform P23819-4 Q607R/DEL765-802): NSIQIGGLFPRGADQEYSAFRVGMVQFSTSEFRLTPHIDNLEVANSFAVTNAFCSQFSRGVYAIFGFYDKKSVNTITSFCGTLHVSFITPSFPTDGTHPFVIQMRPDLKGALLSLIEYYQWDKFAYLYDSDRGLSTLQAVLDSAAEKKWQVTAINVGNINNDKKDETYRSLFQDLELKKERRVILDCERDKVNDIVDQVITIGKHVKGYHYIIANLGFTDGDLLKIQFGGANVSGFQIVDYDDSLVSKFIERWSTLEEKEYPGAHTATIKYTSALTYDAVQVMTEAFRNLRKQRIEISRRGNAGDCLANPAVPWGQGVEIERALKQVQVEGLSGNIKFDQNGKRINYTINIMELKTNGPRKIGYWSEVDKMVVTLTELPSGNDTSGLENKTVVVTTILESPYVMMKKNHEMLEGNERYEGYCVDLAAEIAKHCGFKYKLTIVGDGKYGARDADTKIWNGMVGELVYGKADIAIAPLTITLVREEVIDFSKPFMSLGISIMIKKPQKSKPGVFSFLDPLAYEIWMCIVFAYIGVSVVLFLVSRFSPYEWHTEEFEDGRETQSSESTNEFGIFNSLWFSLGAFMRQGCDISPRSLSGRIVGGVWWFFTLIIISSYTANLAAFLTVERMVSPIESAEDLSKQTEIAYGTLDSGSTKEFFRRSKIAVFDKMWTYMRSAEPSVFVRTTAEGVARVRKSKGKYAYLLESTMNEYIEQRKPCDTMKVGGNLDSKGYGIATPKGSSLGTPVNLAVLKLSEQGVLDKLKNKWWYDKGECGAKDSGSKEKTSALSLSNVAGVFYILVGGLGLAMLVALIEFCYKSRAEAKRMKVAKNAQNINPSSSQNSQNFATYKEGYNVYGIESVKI
T1 sequence (D3Z7H4 whole entry partner): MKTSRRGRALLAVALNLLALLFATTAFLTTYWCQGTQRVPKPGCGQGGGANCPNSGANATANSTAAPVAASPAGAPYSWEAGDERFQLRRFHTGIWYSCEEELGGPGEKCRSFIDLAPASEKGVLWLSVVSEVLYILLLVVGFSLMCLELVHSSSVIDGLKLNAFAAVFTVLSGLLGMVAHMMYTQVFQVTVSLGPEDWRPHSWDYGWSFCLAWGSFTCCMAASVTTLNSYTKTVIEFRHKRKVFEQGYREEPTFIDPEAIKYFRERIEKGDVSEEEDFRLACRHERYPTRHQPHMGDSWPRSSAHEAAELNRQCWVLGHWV
Experimental: (§1) HEK293T cells were cotransfected with plasmids for AMPAR [5′UTR-GluA1^flip(R)-3′UTR, GluA2^flip(Q)-3′UTR, GluA3^flip(Q) (Y454A/R461G), and GluA4^flip(Q)], kainate receptor [GluK2(Q)], auxiliary subunits, or the control vector and transfection marker (EFGP-F or mCherry-F). Fluorophore-ligand conjugates were diluted in Hepes-buffered saline (HBS) buffer [20 mM Hepes (pH 7.4), 107 mM NaCl, 6 mM KCl, 1.2 mM MgSO4, 2 mM CaCl2, and 11.5 mM glucose] and added to the cells. Confocal live imaging was performed with LSM900 (Carl Zeiss) equipped with a 63×, numerical aperture (NA) = 1.4 oil-immersion objective. Fluorescence images were acquired by excitation at 405, 488, 561, or 640 nm derived from diode lasers.
(§2) For evaluating the concentration dependency of fluorophore-ligand conjugates, 0.1 nM probe in HBS was added to the dish. Then, probes in HBS were added stepwise to the dish to a final concentration of 0.3, 1, 3, 10, 30, 100, 300, 1000, and 3000 nM. Cell surface fluorescence intensity was quantified from the line scans of transfection marker positive cells and calculated with subtraction of background by ZEN blue software (Carl Zeiss). […]
(A) Concentration-dependent binding of PFQX1(AF488) to GluA2 flip(R) expressed with GSG1L or TARP γ7. […] (B) The surface intensity of PFQX1(AF488) was quantified. […]

[3] = biological target: T2, GluA4 (Mus musculus, UniProt Q9Z2W8); experiment: Concentration-dependent binding of PFQX1(AF488), confocal live imaging of HEK293T cells expressing GluA4; settings: n = 3, read-out: Kd / Affinity of PFQX1(AF488) to GluA4
T2 construct: expressed in transfected cells; host or cells: HEK293T
T2 sequence (Q9Z2W8 21-902): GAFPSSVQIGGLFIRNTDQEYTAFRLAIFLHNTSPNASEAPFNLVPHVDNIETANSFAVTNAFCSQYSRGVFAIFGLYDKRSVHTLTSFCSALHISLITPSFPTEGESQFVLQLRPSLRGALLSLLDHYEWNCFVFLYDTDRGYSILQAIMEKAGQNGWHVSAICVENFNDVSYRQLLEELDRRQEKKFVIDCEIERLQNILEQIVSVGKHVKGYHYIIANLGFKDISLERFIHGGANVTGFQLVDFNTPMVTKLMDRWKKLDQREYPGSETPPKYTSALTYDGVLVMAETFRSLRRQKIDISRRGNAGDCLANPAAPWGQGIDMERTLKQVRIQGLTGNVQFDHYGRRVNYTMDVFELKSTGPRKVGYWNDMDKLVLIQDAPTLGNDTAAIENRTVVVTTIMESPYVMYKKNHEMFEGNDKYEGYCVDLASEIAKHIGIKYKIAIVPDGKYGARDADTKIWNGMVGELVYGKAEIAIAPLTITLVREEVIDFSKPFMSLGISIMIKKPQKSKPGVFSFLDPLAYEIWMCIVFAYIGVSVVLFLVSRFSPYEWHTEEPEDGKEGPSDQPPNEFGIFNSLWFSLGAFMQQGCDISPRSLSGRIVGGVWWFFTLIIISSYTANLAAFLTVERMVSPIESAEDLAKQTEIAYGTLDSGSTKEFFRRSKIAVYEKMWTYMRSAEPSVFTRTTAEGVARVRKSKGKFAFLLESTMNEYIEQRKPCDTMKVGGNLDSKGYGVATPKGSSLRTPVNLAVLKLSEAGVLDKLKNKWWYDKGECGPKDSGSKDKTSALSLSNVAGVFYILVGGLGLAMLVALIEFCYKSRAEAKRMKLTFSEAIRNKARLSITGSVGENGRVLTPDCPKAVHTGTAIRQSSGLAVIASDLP
Experimental: as §1
(§3) For evaluating the concentration dependency of fluorophore-ligand conjugates, 0.1 nM probe in HBS was added to the dish. Then, probes in HBS were added stepwise to the dish to a final concentration of 0.3, 1, 3, 10, 30, 100, 300, 1000, and 3000 nM. Cell surface fluorescence intensity was quantified from the line scans of transfection marker positive cells and calculated with subtraction of background by ZEN blue software (Carl Zeiss). The membrane intensity was fitted with KaleidaGraph (Synergy software) to calculate the equilibrium constant value using the following equation: a + (b − a)/(1 + (x/c)^d). The equilibrium constant is regarded as the Kd in this study.

[4] = biological target: GluA1 (Mus musculus, UniProt P23818); experiment: Concentration-dependent binding of PFQX1(AF488), confocal live imaging of HEK293T cells expressing GluA1; settings: n = 3, mean ± s.e.m., read-out: Kd / Affinity of PFQX1(AF488) to GluA1
Sequence of GluA1 (P23818 19-907): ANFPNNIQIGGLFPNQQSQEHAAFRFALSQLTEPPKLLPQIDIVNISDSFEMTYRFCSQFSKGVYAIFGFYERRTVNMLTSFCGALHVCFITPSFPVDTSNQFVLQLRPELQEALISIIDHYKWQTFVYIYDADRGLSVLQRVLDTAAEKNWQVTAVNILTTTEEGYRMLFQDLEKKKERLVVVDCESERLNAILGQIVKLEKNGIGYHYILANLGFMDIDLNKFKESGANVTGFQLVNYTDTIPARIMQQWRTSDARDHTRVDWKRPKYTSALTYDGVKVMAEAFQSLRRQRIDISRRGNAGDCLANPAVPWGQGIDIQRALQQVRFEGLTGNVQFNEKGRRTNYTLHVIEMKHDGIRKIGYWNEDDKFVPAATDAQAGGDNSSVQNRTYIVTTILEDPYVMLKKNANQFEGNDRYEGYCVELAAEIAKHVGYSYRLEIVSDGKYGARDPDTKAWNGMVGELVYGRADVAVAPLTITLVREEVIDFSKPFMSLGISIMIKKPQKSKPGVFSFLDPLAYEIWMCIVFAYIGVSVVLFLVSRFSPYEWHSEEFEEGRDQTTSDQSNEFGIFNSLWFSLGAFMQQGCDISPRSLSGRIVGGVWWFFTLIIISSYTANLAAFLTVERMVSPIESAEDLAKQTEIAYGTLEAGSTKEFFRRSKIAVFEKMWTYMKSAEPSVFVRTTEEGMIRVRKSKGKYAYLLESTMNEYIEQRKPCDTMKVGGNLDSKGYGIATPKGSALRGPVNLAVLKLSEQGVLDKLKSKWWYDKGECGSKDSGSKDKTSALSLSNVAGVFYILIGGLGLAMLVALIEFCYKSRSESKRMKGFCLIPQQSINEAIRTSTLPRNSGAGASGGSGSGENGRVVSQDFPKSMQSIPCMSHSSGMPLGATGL
Experimental: as §1, §3

[5] = biological target: T3, GluA2flip(R) + TARP γ7 (Mus musculus, UniProt P23819, DEL765-802/Q607R); experiment: Concentration-dependent binding of PFQX1(AF488) to GluA2flip(R) expressed with TARP γ7 in HEK293T cells; settings: n = 3–4, read-out: Kd / Affinity of PFQX1(AF488) to GluA2flip(R) with TARP γ7
T3 construct: expressed in transfected cells; host or cells: HEK293T
T3 sequence (P23819 with tags, fused parts or gaps isoform P23819-4 Q607R/DEL765-802): as the sequence (P23819 with tags, fused parts or gaps isoform P23819-4 Q607R/DEL765-802) above
T3 sequence (P62956 whole entry partner): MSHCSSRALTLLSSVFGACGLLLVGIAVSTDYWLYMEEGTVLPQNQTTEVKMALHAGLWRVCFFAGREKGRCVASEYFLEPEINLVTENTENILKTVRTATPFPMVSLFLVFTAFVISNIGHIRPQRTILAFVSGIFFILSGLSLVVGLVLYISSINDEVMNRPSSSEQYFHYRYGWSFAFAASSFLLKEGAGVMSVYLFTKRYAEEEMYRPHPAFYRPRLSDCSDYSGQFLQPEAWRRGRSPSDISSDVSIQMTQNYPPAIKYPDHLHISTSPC
Experimental: HEK293T cells (American Type Culture Collection) were cultured in Dulbecco’s modified Eagle’s medium (DMEM)–GlutaMAX (Invitrogen) supplemented with 10% fetal bovine serum (FBS) (Sigma-Aldrich), penicillin (100 U ml^−1), and streptomycin (100 μg ml^−1) and incubated in a 5% CO2 humidified chamber at 37°C. Cells were transfected with a plasmid using Lipofectamine 3000 (Invitrogen) according to the manufacturer’s instructions. Twenty-four hours after transfection, the cells were seeded on glass-bottom dishes coated with poly-L-lysine solution and incubated for 24 hours except for GluA4, TARP γ7, and GluK2. For GluA4, TARP γ7, and GluK2 expression, the cells were used 24 hours after transfection. […]
HEK293T cells were cotransfected with plasmids for AMPAR [5′UTR-GluA1^flip(R)-3′UTR, GluA2^flip(Q)-3′UTR, GluA3^flip(Q) (Y454A/R461G), and GluA4^flip(Q)], kainate receptor [GluK2(Q)], auxiliary subunits, or the control vector and transfection marker (EFGP-F or mCherry-F). […] Fluorescence images were acquired by excitation at 405, 488, 561, or 640 nm derived from diode lasers.
as §2, with “Then, probes in HBS were added stepwise to the dish to a final concentration of 0.3, 1, 3, 10, 30, 100, 300, 1000, and 3000 nM.” left out

[6] = Solubility of PFQX(Dye)s in HBS; type: physicochemical; settings: aqueous buffer; dissolved in HBS
Experimental: aAffinity was evaluated in HEK293T cells expressing GluA2 flip(Q).
S3A. bPFQX(Dye)sweredissolved in HBS.
cAffinity to native AMPARs were evaluated usingprimary cultured hippocampal

[7] = biological target: T4, GluA2flip(Q) (Mus musculus, UniProt P23819, DEL765-802); experiment: Concentration-dependent binding of fluorophore-ligand conjugates, confocal live imaging of HEK293T cells expressing GluA2
T4 construct: expressed in transfected cells; host or cells: HEK293T
T4 sequence (P23819 with tags, fused parts or gaps isoform P23819-4 DEL765-802): as the sequence (P23819 with tags, fused parts or gaps isoform P23819-4 Q607R/DEL765-802) above, with R583Q counted along it

## N=c1ccc2c(-c3ccc(C(=O)NCc4ccn(-c5cc6c(cc5C(F)(F)F)[nH]c(=O)c(=O)n6CC(=O)O)c4)cc3C(=O)O)c3ccc(N)c(S(=O)(=O)O)c3oc-2c1S(=O)(=O)O [PFQX1(AF488)]
[1]
  reversibility of binding (medium exchange) in slices: can be washed out by the medium exchange
[2]
  Kd: 0.0345 ± 0.0124 µM
[3]
  Kd: 0.0202 ± 0.0012 µM
[4]
  Kd: 0.0787 ± 0.0154 µM
[5]
  Kd: 0.118 ± 0.0447 µM
[6]
  solubility: > 1470 µM
[7]; HEK293T cells expressing GluA2
  cell-surface fluorescence / affinity to AMPARs (in words): high affinity
[7]; HEK293T cells expressing GluA2flip(Q), cell-surface fluorescence, mean ± SEM, n = 3, read-out: dissociation constant (Kd) / Affinity to GluA2
  Kd: 0.0372 ± 0.0098 µM
